In patent US20240156790A1, “COMPOUNDS, COMPOSITIONS, AND METHODS FOR MODULATING FERROPTOSIS AND TREATING EXCITOTOXIC DISORDERS” (THE TRUSTEES OF COLUMBIA UNIVERSITY IN THE CITY OF NEW YORK, priority 2018, published 2024):
“Also recorded” adds a separate entry of the source.

Assays:
HT-1080 cells = experiment: Rescue activity of Fer-1 analogs: inhibition of erastin-, IKE- or RSL3-induced death (Alamar Blue viability); type: cell-based
R6/2 mice = experiment: 45-day drinking water and PO study of ferrostatins in R6/2 mice (weight, survival, Rotarod, Catwalk, LC/MS); type: in vivo
Method: Ferrostatins and 42 μM Citric acid were dissolved in 5% DMSO, 5% ethanol, and 90% PBS rendering a final concentration of 0.29 mg/mL of each ferrostatin in drinking water. The mice drink ˜2 mL water per day, and the resulting dosage was around 20-30 mg/kg/day. R6/2 mice at ˜6-7 weeks of age were treated via drinking water and PO at 20 mg/kg. Mice were weighed daily, the weight recorded, and the change in body weight compared to the baseline, pre-injection weight was calculated. Any mouse that lost more than 20% of its baseline body weight for three consecutive days was euthanized prior to the completion of the study. Mice were euthanized by CO2 asphyxiation for 3 min after administration. Approximately 0.5 mL of blood was collected via cardiac puncture and immediately put in K3 EDTA microtubes and kept on ice. Brains were harvested, placed in Eppendorf tubes, and frozen on dry ice. Blood samples were centrifuged for 10 min at 2,100×g at 4° C., then plasma was transferred to a clean tube and frozen on dry ice.
Brain samples were weighed and placed in hard tissue homogenizing tubes. Two volume of HPLC grade methanol was added to make a solution and homogenized using the Omni Bead Ruptor 4 at speed 5 for two 30-second runs. The product was aliquoted and diluted by adding 900 μL HPLC grade ice-cold methanol. After centrifugation for 20 mins at 14,000×g at 4° C., supernatant was collected in a clean vial and dried by vacuum centrifugation (GeneVac).
Prior to LC-MS analysis, the samples were resuspended in 100 μL methanol and centrifuged for 5 minutes at 14,000×g at 4° C. The supernatant was analyzed via SYNAPT High Resolution Mass Spectrometer.
Rotarod “Linear Incline” experiment was performed with 11- to 12-week-old R6/2 mice at Day 25 with a rotations per minute (RPM) ramp over a 300s duration, start speed of 5 RPM, and max speed of 40 RPM. Mice were acclimated to testing room for 30 minutes prior to experimentation. Latency to fall was recorded in seconds for each mouse, and lanes were cleaned with 70% ethanol between mice.
The Catwalk apparatus (Noldus Information Technology, Leesburg, VA) consisted of an illuminated walled glass walkway (130 cm×10 cm) and a high-speed camera underneath. Mice were allowed 30 minutes to acclimate to the testing room, then behavioral task was performed with 11- to 12-week-old R6/2 mice on Day 25. Mice were placed on the glass walkway and allowed to ambulate freely across the runway towards the goal box at the end of the walkway. A goal box blocked the other end of the walkway, forcing the mouse to return to the entryway. Each mouse completed Catwalk runs until three compliant runs (fluent crossings without stopping/hesitation), were detected and verified, running for as long as needed to do so. Behavioral measures were calculated using Noldus Gait Analysis Software, and pairing and further comparisons were done using RM one-way ANOVAs.
The pharmacokinetic properties of TH-4-55-2 were initially assessed in vivo, focusing on its BBB distribution. Subsequent investigations involved TH-4-67 and TH-2-31. […] This regimen continued for 45 days, during which changes in body weight were monitored (FIG. 29A). Mouse body weights that fell under 20% of baseline measurements were sacrificed, while spontaneous deaths over the course of the study were monitored (FIG. 29B). Motor coordination was assessed via Rotarod behavior measurements (FIG. 30), and gait analysis was conducted using CatWalk (FIGS. 31A-31B).

CCOC(=O)c1ccc(NC2CCCCC2)c(N)c1 [Fer-1, Ferrostatin-1, reference compound] gave an EC50 (HT-1080 cells; Homo sapiens, ^a 50% viability, HT-1080 cells treated with 10 μM erastin) of 0.05 µM.
For Cc1noc(-c2ccc(NC3CCCCC3)c(NC3CCCCC3)c2)n1 [PHB4082, N1,N2-dicyclohexyl-4-(3-methyl-1,2,4-oxadiazol-5-yl)benzene-1,2-diamine], the “increase in potency compared to fer-1” value (HT-1080 cells; suppressing erastin-induced ferroptosis) was 7 fold.
In the case of Cc1noc(-c2cnc(NC3CCCCC3)c(NC3CCCCC3)c2)n1 [TH-2-31, N^2,N^3-dicyclohexyl-5-(3-methyl-1,2,4-oxadiazol-5-yl)pyridine-2,3-diamine], the “Catwalk gait: Base of Support (BOS)” value (R6/2 mice; PO, Day 25) is reported as “significantly worse BOS compared to Vehicle; also recorded: significantly worse performance”.
In the case of CCC(CC)Nc1cc(-c2nc(C)no2)cnc1NC1CCCCC1 [TH-4-55-2, N^2-cyclohexyl-5-(3-methyl-1,2,4-oxadiazol-5-yl)-N^3-(pentan-3-yl)pyridine-2,3-diamine], the “Rotarod latency to fall” value (R6/2 mice; PO 20 mg/kg, Day 25, 20 mg/kg) is reported as “consistently scored higher compared to control; also recorded: consistently higher mean latency to fall across trials compared to control” and the “accumulation in brain over plasma” value (R6/2 mice; PO and drinking water, 45-day course) is reported as “preferentially accumulated in the brain over plasma for both routes of administration”.
In the case of Cc1noc(-c2cnc(NC3CCCC3)c(NC3CCCC3)c2)n1 [TH-4-67, N^2,N^3-dicyclopentyl-5-(3-methyl-1,2,4-oxadiazol-5-yl)pyridine-2,3-diamine], the “Catwalk gait: Base of Support (BOS)” value (R6/2 mice; PO, Day 25) is reported as “significant decrease in Base of Support (BOS); also recorded: significant improvement of BOS in the hind paws of least coordinated mice” and the “Catwalk gait: Cadence” value (R6/2 mice; PO, Day 25, Best performing mice) is reported as “the leading compound among this group”.
